Structures can show the parent of a compound that is named as a salt.
Key:
CYP 2C9 = CYP 2C9 (Homo sapiens, UniProt P11712); experiment: CYP inhibition 2C9; assay type: in vitro ADME
hOAT [1] = target: T1, hOAT (Homo sapiens, UniProt P04181); experiment: Transient state (stopped-flow) measurements of hOAT reacting with SS-1-148; assay type: biochemical; conditions: 10° C., pH 7.5
T1 construct: made in house; host or cells: E. coli BL21(DE3)
T1 sequence (P04181 26-439): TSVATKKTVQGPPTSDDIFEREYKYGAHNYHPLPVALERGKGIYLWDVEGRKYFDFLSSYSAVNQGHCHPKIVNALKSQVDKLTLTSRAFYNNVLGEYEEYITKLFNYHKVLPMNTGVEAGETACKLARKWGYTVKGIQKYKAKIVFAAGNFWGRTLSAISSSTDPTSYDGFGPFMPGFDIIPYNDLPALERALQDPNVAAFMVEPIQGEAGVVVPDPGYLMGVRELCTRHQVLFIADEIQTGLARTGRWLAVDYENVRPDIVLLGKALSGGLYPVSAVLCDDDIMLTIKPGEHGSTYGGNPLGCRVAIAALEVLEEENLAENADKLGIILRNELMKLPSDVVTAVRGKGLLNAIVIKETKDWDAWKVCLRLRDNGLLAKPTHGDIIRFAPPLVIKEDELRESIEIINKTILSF
Method: FIG. 6. Transient state absorption changes observed at 275, 420, and 560 nm for hOAT reacting with SS-1-148. OAT (12.7 μM final) was mixed with SS-1-148 (126, 251, 502, 1004, 2008, 4016 μM), and CCD spectra were collected for the timeframe 0.009-49.2 seconds. (A) The data observed at 420 nm fit to a linear combination of three exponential terms according to equation (3) described in the supporting information. The arrow indicates the trend observed in amplitude for increasing inhibitor concentration. (B) The observed rate constant dependence of the first phase observed at 420 nm fit to equation (5) described in the supporting information. The values for k2 and k3 indicated are the average values obtained from the fit in FIG. 5A. The fit is shown in red dashes. (C) The data observed at 560 nm. The curved arrow indicates the trend observed in amplitude for increasing inhibitor concentration. […] The fit is shown in red dashes. (D) The data observed at 275 nm over 2000 sec obtained in the presence of 8032 μM SS-1-148 fit to a linear combination of two exponential terms according to equation (4) in the supporting information. The fit is shown in red dashes.
FIG. 7. Partial deconvolution by singular value decomposition (SVD) of transient state absorption changes observed for hOAT reacting with SS-1-148. hOAT (6.94 μM; final concentration) was reacted in a stopped-flow spectrophotometer with SS-1-148 (1040 μM; final concentration) at 10° C. To obtain time resolution sufficient to analyze kinetic rates spanning four orders of magnitude, a composite CCD absorbance dataset was prepared spanning 250-800 nm and 0.0137-9843 sec by splicing together averaged short and long time-frame datasets. […] The species concentration profile based on the rate constants used to fit the dataset (B). A three-dimensional depiction of a subset of spectra from the dataset analyzed (C).
For each concentration of the inhibitor, CCD spectral datasets were collected in duplicate for 50 sec, and the duplicates were averaged For the highest concentration of inhibitor (8 mM) duplicate CCD datasets were acquired for two timeframes (0.0025-12.4 sec and 0.0025-2480 sec). Duplicate datasets for anyone timeframe were averaged and then spliced together at 12 sec to form one dataset with sufficient time resolution to adequately describe rapid and slow processes. […] In the process, the rate constants were fixed to the values measured using analytical fits to data extracted for single wavelengths that assume successive first-order processes according to the equations (3), (4), and (5). Abs is absorbance, Ax are the amplitudes associated with each observed phase, kx are the corresponding rate constants, and C is the absorbance endpoint.

Aqueous solubility = assay type: physicochemical; conditions: aqueous medium (not further specified); HCl salt
CYP 2C19 = CYP 2C19 (Homo sapiens, UniProt P33261); experiment: CYP inhibition 2C19; assay type: in vitro ADME
Plasma PK profiles = assay type: in vivo
hOAT [2] = target: T1, hOAT; experiment: Partition ratio experiment (titration of hOAT); assay type: biochemical
Method: FIG. 9. Titration of hOAT with SS-1-148. The loss of enzyme activity was measured as a function of the ratio of […] to enzyme concentration. Linear regression was used on the linear portion of the curves to obtain the X-intercept, which was the turnover number (partition ratio=turnover number−1).
The partition ratio was calculated using previous protocols.^8-10

[3] = Liver microsomal stability, mouse; assay type: in vitro ADME
hERG = hERG (Homo sapiens, UniProt Q12809); experiment: hERG test; assay type: in vitro ADME
Sequence of hERG (Q12809 whole entry): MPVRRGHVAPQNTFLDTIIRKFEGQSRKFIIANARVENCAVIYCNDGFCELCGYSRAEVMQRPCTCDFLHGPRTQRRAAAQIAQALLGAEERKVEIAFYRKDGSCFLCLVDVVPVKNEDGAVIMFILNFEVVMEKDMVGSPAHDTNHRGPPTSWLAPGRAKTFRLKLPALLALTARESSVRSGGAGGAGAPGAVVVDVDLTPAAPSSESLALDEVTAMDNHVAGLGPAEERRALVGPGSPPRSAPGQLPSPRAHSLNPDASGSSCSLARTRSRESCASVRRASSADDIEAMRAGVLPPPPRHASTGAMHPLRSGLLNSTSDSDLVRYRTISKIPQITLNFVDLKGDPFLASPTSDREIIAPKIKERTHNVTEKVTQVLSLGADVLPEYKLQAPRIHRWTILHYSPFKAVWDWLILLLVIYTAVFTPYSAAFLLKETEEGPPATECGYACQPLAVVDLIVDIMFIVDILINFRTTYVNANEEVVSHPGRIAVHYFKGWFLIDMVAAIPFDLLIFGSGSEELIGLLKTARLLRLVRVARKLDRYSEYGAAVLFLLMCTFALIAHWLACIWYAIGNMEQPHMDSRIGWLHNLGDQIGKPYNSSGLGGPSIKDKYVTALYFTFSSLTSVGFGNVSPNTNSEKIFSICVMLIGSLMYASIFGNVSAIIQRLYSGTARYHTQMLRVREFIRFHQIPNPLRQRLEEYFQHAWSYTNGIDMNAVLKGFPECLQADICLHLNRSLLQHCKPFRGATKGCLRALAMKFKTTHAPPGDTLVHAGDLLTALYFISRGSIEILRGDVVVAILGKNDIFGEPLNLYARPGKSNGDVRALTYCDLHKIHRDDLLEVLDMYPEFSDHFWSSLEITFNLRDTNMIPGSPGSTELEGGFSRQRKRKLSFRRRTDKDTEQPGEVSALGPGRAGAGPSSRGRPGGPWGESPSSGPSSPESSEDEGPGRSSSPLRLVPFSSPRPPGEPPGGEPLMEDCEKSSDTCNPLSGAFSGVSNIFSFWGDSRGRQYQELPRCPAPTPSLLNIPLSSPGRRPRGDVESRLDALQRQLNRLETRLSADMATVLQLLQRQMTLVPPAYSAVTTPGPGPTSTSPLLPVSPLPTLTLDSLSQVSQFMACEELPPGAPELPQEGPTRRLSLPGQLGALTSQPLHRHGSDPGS

Sequence of CYP 2C19 (P33261 whole entry): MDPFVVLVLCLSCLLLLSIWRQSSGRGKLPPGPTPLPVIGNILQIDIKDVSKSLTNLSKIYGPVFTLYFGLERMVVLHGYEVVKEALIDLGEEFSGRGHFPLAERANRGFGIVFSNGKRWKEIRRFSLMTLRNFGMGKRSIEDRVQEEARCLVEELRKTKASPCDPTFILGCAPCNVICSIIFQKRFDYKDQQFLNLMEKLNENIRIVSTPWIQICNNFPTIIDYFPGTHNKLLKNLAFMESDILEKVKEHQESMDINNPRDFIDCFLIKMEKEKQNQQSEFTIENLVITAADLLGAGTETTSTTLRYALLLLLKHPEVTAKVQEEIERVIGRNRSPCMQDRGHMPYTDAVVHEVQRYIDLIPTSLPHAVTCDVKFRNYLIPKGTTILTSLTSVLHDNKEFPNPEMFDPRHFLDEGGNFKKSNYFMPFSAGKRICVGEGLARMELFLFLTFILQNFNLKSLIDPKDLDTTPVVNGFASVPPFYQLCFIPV
Sequence of CYP 2C9 (P11712 whole entry): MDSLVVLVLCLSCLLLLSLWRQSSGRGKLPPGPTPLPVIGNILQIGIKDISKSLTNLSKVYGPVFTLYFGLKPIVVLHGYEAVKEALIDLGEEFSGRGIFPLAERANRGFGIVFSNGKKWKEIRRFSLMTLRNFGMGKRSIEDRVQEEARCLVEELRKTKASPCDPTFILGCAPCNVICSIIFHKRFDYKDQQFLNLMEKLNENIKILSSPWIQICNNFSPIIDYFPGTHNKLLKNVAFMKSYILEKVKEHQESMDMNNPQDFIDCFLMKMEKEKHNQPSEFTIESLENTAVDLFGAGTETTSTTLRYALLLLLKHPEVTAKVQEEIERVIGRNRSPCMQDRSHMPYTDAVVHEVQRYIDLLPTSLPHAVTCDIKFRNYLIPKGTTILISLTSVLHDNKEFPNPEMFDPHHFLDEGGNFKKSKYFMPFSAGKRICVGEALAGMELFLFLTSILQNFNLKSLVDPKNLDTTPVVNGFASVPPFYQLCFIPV

For `N[C@H]1C=C(C(=O)O)CC1(F)F` [SS-1-148, (S)-3-Amino-4,4-difluorocyclopent-1-enecarboxylic acid hydrochloric acid salt], the IC50 (CYP 2C9) was over 100 µM, the “rate constant of final phase (increase at ~275 nm)” value (hOAT [1]) was 0.007 s⁻¹ and the “rate dependence of second external aldimine formation (bimolecular reaction)” value (hOAT [1]) was 6200 M⁻¹ s⁻¹. The “rate of accumulation of quinonoid species (~560 nm)” value (hOAT [1]) was 0.4 s⁻¹, the “rate of quinonoid decay” value (hOAT [1]) was 0.09 s⁻¹ and the solubility (Aqueous solubility) was over 50 mM. The IC50 (CYP 2C19) was over 100 µM, the AUC(0-inf) (Plasma PK profiles; IV (5 mg/kg)) was 1160 ng·h/mL and the AUC(0-t) (Plasma PK profiles; IV (5 mg/kg)) was 1150 ng·h/mL. It also gave a Cmax (Plasma PK profiles; IV (5 mg/kg)) of 4680 ng/mL, a T1/2 (Plasma PK profiles; IV (5 mg/kg)) of 0.43 H and a clearance (Plasma PK profiles; IV (5 mg/kg)) of 72 mL/min/kg. The Vd (Plasma PK profiles; IV (5 mg/kg), read-out: Vss) was 1.01 L/kg, the AUC(0-inf) (Plasma PK profiles; PO (30 mg/kg)) was 8530 ng·h/mL and the AUC(0-t) (Plasma PK profiles; PO (30 mg/kg)) was 8440 ng·h/mL. For the same compound, the Cmax (Plasma PK profiles; PO (30 mg/kg)) was 8080 ng/mL, the Tmax (Plasma PK profiles; PO (30 mg/kg)) was 15 min and the bioavailability (Plasma PK profiles; PO (30 mg/kg)) was about 100%. The “equivalents turned over per active site for each equivalent leading to inactivation” value (hOAT [2]) was 34.9 equivalents, the “Liver microsomal stability (t1/2) Mouse” value [3] was “N/C” and the IC50 (hERG) was over 30 µM.
